Laboratory results reported in US20090192135A1, “Human Niemann Pick C1-Like 1 Gene (NPC1L1) Polymorphisms and Methods of Use Thereof” (SCHERING CORPORATION, priority 2005, published 2009).

Target: T1, NPC1L1 (Homo sapiens, UniProt Q9UHC9)
T1 construct: from tissue; host or cells: small intestine of hypercholesterolemic patients (in vivo, clinical trial)
T1 sequence (Q9UHC9 22-1332 isoform Q9UHC9-2 limits assumed): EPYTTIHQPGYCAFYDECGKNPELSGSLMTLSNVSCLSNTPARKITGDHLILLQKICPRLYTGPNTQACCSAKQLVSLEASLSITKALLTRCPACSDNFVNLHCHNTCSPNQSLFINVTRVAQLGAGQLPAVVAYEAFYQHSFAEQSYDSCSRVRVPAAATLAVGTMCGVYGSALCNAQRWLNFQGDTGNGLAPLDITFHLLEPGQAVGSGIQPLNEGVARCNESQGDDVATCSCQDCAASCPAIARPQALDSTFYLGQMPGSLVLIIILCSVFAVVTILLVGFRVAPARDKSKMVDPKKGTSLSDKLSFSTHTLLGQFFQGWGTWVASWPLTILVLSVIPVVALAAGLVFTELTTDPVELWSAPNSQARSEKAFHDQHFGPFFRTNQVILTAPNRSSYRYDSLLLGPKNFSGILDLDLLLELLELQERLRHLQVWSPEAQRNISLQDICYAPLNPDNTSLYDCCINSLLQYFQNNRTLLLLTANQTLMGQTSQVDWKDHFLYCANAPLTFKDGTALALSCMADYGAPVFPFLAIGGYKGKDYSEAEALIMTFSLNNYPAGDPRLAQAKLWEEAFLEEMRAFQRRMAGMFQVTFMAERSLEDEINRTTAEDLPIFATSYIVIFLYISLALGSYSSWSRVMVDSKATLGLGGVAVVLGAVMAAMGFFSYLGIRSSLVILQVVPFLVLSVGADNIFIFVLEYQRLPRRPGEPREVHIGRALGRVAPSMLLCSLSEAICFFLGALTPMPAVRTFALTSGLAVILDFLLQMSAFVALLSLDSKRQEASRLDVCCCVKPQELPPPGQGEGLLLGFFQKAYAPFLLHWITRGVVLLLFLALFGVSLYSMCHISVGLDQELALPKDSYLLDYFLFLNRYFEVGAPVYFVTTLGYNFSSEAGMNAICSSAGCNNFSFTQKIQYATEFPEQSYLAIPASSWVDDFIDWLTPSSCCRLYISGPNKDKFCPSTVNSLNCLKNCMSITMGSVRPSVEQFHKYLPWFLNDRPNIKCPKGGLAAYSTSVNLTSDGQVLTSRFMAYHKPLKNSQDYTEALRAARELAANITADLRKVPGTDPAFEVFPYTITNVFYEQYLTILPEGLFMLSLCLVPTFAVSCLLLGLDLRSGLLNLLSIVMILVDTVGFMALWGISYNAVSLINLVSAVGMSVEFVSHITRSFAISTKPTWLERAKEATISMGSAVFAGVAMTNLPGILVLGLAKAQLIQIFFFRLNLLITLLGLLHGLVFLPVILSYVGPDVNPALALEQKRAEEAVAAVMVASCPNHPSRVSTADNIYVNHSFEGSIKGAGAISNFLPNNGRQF
Test: EASE trial: LDL-C response to six weeks of ezetimibe 10 mg/day added to stable statin therapy, analysed by NPC1L1 genotype/haplotype
Assay type: in vivo
Conditions: for Least-Squares (adjusted) Mean (n,/Stderr), percent change in LDL-C: Extreme responders N = 239; for Odds Ratio, extreme responder association with SNP: g.-18C > A; for Adjusted Least Squares Mean, LDL-C response: extreme responder data set
Protocol: Genotyping assays were developed for a number of novel and known common variants with minor allele frequencies greater than 4% that were identified in Example 1. Genetic association analysis was performed with these SNPs in a clinical trial cohort (EASE), described below, to assess whether DNA sequence variants in NPC1L1 are associated with changes in the levels of a variety of plasma cholesterol components in hypercholesterolemia patients in response to pharmacotherapy with ezetimibe and statins as compared to patients treated with a statin and placebo.
To study whether variations in NPC1L1 were associated with response to ezetimibe added to statin therapy, a study population was derived from the Ezetimibe Add-On to Statin for Effectiveness (EASE) Trial (Pearson et al., (2005) Mayo Clinic Proceedings, In Press). The EASE trial was a community-based, randomized, double-blind, placebo controlled study to evaluate the effects of six weeks of ezetimibe, 10 mg/day, added on to a stable regimen of statin therapy, on lipid biomarkers in hypercholesterolemic patients whose LDL-C levels exceeded the National Cholesterol Education Program (NCEP) Adult Treatment Panel (ATP) m guidelines for their coronary heart disease (CHD) risk category. At enrollment, patients taking a stable dose of statin (any dose, any brand) and following a NCEP Step 1 diet or similar cholesterol-lowering diet for at least six weeks prior to entry into the study were randomized to either the ezetimibe (n=2020, 2009 received the treatment) or placebo (n=1010, 1009 received the treatment) arm. From the ezetimibe group, 1208 patients provided consent for genomic analysis and were included in this study. A series of clinical measures corresponding to various cardiovascular risk factors were measured from samples obtained from all trial participants and are summarized by Pearson et al., supra.
Twenty one SNPs from Table 4 (Example 1) were converted to valid genotyping assays, thirteen of which had allele frequencies greater than 2% in all EASE sub-populations. TaqMan Allelic Discrimination assays (Livak, (1999) Genet. Anal. 14:143-49) were performed using Primer Express software and the Assay-by-Design service offered by Applied Biosystems (Foster City, Calif.). […] All probe/primer sets were designed to function using universal reaction and cycling conditions.
The twenty one selected SNPs were genotyped in 1,208 individuals participating in the ezetimibe+statin treatment arm of the EASE trial. A series of clinical measures corresponding to various cardiovascular risk factors were taken on all trial participants (Tables 4a-d). Thirteen selected SNPs genotyped in the EASE cohort were confirmed as having common allele frequencies in this cohort, i.e., an allele frequency of greater than 2% in all EASE sub-populations. […] This could reflect the increased power in the larger EASE cohort to make such detections (see Table 5).
The mean (SD) for total plasma cholesterol, HDL cholesterol (HDL-C), and LDL cholesterol (LDL-C) was 211.0 (34.9), 48.6 (11.5), and 129.1 (30.0) mg/dL, respectively (Pearson et al., supra). […] The distribution of these measurements was similar in the subjects enrolled in this genetic study (Pearson et al., supra). […] No significant associations were found between these response predictive variables and any of the tagging SNPs.
Genetic association analysis was carried out in the EASE cohort with LDL-C response to ezetimibe treatment considered as the primary outcome variable. Individual SNPs, haplotypes, and haplotype combinations were the principal explanatory variables used in the analyses. General linear models were used to estimate the effects of genotypes, haplotypes, and diplotypes on the LDL-C response phenotype. Baseline LDL-C levels, sex, age, and race were investigated to determine if they gave rise to significant effects. Baseline LDL-C levels associated with significant effects in all models and were therefore included in all analyses. […]

- Least-Squares (adjusted) Mean (n,/Stderr), percent change in LDL-C (g.1679C > G C/C): C/C: −17.49 (143/2.71) %
- Least-Squares (adjusted) Mean (n,/Stderr), percent change in LDL-C (g.1679C > G C/G): C/G: −25.16 (85/3.51) %
- Least-Squares (adjusted) Mean (n,/Stderr), percent change in LDL-C (g.1679C > G G/G): G/G: −40.93 (11/9.76) %
- Odds Ratio, extreme responder association with SNP (baseline LDL-C as covariate table, extreme responders N = 239, CI (1.59, 5.44)): Odds Ratio = 2.94-
- Least-Squares (adjusted) Mean, percent change in LDL-C (baseline LDL-C as covariate, extreme responders N = 239, g.-18C > A C/C): C/C: −17.8%
- Least-Squares (adjusted Mean), percent change from baseline LDL-C (baseline LDL-C as covariate, g.-18C > A A/A): −26.5%
- Least-Squares (adjusted Mean), percent change from baseline LDL-C (baseline LDL-C as covariate, g.-18C > A C/A): −27.9%
- Least-Squares (adjusted Mean), percent change from baseline LDL-C (baseline LDL-C as covariate, g.-18C > A C/C): −24.2%
- Least-Squares (adjusted Mean), percent change from baseline LDL-C (baseline LDL-C as covariate, g.-133A > G A/A): −25.9%
- Least-Squares (adjusted Mean), percent change from baseline LDL-C (baseline LDL-C as covariate, g.-133A > G A/G): −24.8%
- Least-Squares (adjusted Mean), percent change from baseline LDL-C (baseline LDL-C as covariate, g.-133A > G G/G): −21.9%
- Least-Squares (adjusted Mean), percent change from baseline LDL-C (baseline LDL-C as covariate, g.1679C > G C/C): −24.5%
- Least-Squares (adjusted Mean), percent change from baseline LDL-C (baseline LDL-C as covariate, g.1679C > G C/G): −26%
- Least-Squares (adjusted Mean), percent change from baseline LDL-C (baseline LDL-C as covariate, g.1679C > G G/G): −27.9%
- Least-Squares (adjusted Mean), percent change from baseline LDL-C (baseline LDL-C as covariate, g.19224G > A A/A): −28.6%
- Least-Squares (adjusted Mean), percent change from baseline LDL-C (baseline LDL-C as covariate, g.19224G > A G/A): −25.8%
- Least-Squares (adjusted Mean), percent change from baseline LDL-C (baseline LDL-C as covariate, g.19224G > A G/G): −25%
- Least-Squares (adjusted Mean), percent change from baseline LDL-C (baseline LDL-C as covariate, g.19259T > C C/C): −26.2%
- Least-Squares (adjusted Mean), percent change from baseline LDL-C (baseline LDL-C as covariate, g.19259T > C T/C): −25.2%
- Least-Squares (adjusted Mean), percent change from baseline LDL-C (baseline LDL-C as covariate, g.19259T > C T/T): −25%
- Least-Squares (adjusted Mean), percent change from baseline LDL-C (baseline LDL-C as covariate, g.28650A > G A/A): −24.3%
- Least-Squares (adjusted Mean), percent change from baseline LDL-C (baseline LDL-C as covariate, g.28650A > G A/G): −26.6%
- Least-Squares (adjusted Mean), percent change from baseline LDL-C (baseline LDL-C as covariate, g.28650A > G G/G): −28%
- additional decrease in absolute LDL-C levels (corresponding to a 15% relative increase in LDL-C reductions): ~5 mg/dL
- Adjusted Least Squares Mean, LDL-C response (diplotype A-A-C / A-C-C): −38.20%
- Adjusted Least Squares Mean, LDL-C response (diplotype A-A-G / A-C-C): −34.80%
- Adjusted Least Squares Mean, LDL-C response (diplotype A-A-G / A-C-G): −40.29%
- Adjusted Least Squares Mean, LDL-C response (diplotype A-A-G / G-C-C): −29.06%
- Adjusted Least Squares Mean, LDL-C response (diplotype A-C-C / A-C-C): −21.78%
- Adjusted Least Squares Mean, LDL-C response (diplotype A-C-C / A-C-G): −4.60%
- Adjusted Least Squares Mean, LDL-C response (diplotype A-C-C / G-C-C): −14.60%
- Adjusted Least Squares Mean, LDL-C response (diplotype A-C-G / A-C-G): −41.46%
- Adjusted Least Squares Mean, LDL-C response (diplotype A-C-G / G-C-C): −24.20%
- Adjusted Least Squares Mean, LDL-C response (diplotype G-C-C / G-C-C): 3.93%
- Adjusted Least Squares Mean, LDL-C response (diplotype G-C-C / G-C-G): −66.96%
- Adjusted Least Squares Mean (stderr), LDL-C response (extreme responders, 3-SNP haplotype A-A-G, 0 copies (count 181)): −17.32 (2.38) %
- Adjusted Least Squares Mean (stderr), LDL-C response (extreme responders, 3-SNP haplotype A-A-G, 1 copy (count 58)): −33.69 (4.21) %
- Adjusted Least Squares Mean (stderr), LDL-C response (extreme responders, 3-SNP haplotype G-C-C, 0 copies (count 139)): −24.51 (2.75) %
- Adjusted Least Squares Mean (stderr), LDL-C response (extreme responders, 3-SNP haplotype G-C-C, 1 copy (count 92)): −18.62 (3.38) %
- Adjusted Least Squares Mean (stderr), LDL-C response (extreme responders, 3-SNP haplotype G-C-C, 2 copies (count 8)): 3.93 (11.45) %
- mean LDL-C percent response (extreme responders, g.−18C>A heterozygotes): 33.98%
- increase in efficacy / increased reduction in LDL-C (extreme responders, g.−18C>A heterozygotes vs homozygous common allele): 100%
- mean LDL-C percent response (extreme responders, homozygous for the common allele of g.−18C>A (176/239)): 16.8%
- Odds Ratio, extreme responder association with SNP (extreme responders N = 239, 95% CI 1.59, 5.44): Odds ratio** = 2.94-
- increased LDL-C response / greater reduction in LDL-C (g.−18C>A minor allele carriers compared to homozygous major allele, EASE cohort): 15%
Structure (SMILES): O=C1[C@H](CC[C@H](O)c2ccc(F)cc2)[C@@H](c2ccc(O)cc2)N1c1ccc(F)cc1 [ezetimibe, 1-(4-fluorophenyl)-3(R)-[3-(4-fluorophenyl)-3(S)-hydroxypropyl]-4(S)-(4-hydroxyphenyl)-2-azetidinone]
